{
  "source": "patent US20220323445A1",
  "about": "“REDUCING IMMUNOGENICITY TO PEGLOTICASE” (Horizon Therapeutics Ireland DAC, priority 2020, published 2022)",
  "key": {"[1]": {"details": "cited from earlier work"}, "[2]": {"test_system": "patients with uncontrolled gout", "description": "As used herein, an “adverse event” or “AE” refers to any untoward medical occurrence associated with the use of a drug in humans, whether it is considered drug-related or not. An AE or suspected adverse reaction is considered a “serious adverse event” or “SAE” if, in the view of either the Investigator or Sponsor, it results in any of the following outcomes: (1) Death, (2) Life-threatening: an AE is considered “life-threatening” if, in the view of either the Investigator or Sponsor, its occurrence places the subject or subject at immediate risk of death. […] (5) A congenital anomaly/birth defect; (6) Important medical events that may not result in death, be life-threatening, or require hospitalization may be considered serious when, based upon appropriate medical judgment, they may jeopardize the patient or subject and may require medical or surgical intervention to prevent one of the outcomes listed in this definition.\nSafety Variables: Safety was assessed via AE and concomitant medication use monitoring, physical examinations, vital signs, clinical safety laboratory evaluations (hematology, chemistry, urine uric acid:creatinine ratio), pregnancy testing (if applicable), electrocardiograms (ECGs), and AEs of special interest (i.e., IRs, anaphylaxis, gout flares, and cardiovascular events).\nAEs of special interest may include IRs, anaphylaxis, gout flares, and cardiovascular events.\nSeverity in accordance with the disclosure is reported according to the following: Grade 1 (Mild)—No interference with daily activity. Grade 2 (Moderate)—Some interference with daily activity but medical intervention not required (e.g., doctor visit and/or medication); over the counter medicine permitted. Grade 3 (Severe)—Prevents daily activity and requires medical intervention (e.g., doctor visit and/or medication). Grade 4 (Potentially Life-threatening)—Emergency room visit or hospitalization.\nAn AE was defined as any untoward event, whether or not it was considered related to the use of pegloticase or MTX. Any worsening (i.e., any clinically significant adverse change in frequency or intensity) of a preexisting condition which was temporally associated with the use of pegloticase or MTX was also considered an AE. Abnormal laboratory values or test results constitute AEs only if they induce clinical signs or symptoms or require therapy, and were recorded on the AE CRF under the signs, symptoms or were associated with diagnoses associated with them. Screening conditions were not considered AE; however, worsening of a preexisting condition may be considered an AE. AEs were collected starting at the baseline, Visit 1.\nTEAEs during the Pegloticase+IMM Period were defined as events that occur after the start of the first pegloticase infusion through 30 days after the last dose of pegloticase and/or MTX or placebo for MTX (whichever was later). TEAEs that occur during the MTX Tolerability Assessment Period prior to randomization (Weeks −6 to −4) was summarized separately for the MTX population. […] AEs that occur more than 30 days after the last dose of pegloticase and/or MTX or placebo for MTX through the 6-month follow-up visit was also summarized."}},
  "note": "Read-outs that look alike come from different tables or passages of the source.",
  "data": [
    {"smiles": "CN(Cc1cnc2nc(N)nc(N)c2n1)c1ccc(C(=O)N[C@@H](CCC(=O)O)C(=O)O)cc1", "note": "[MTX, methotrexate]", "values": [
      {"measurement": "Increased susceptibility to infection", "setting": "[1]; RA", "value": "< 1", "unit": "%"},
      {"measurement": "Leukopenia", "setting": "[1]; RA", "value": 28, "unit": "%"},
      {"measurement": "Nausea and vomiting", "setting": "[1]; RA", "value": 12, "unit": "%"},
      {"measurement": "Increased susceptibility to infection", "setting": "[1]; renal transplant", "value": 20, "unit": "%"},
      {"measurement": "Leukopenia", "setting": "[1]; renal transplant", "value": "> 50", "unit": "%"},
      {"measurement": "neoplasia (lymphoma)", "setting": "[1]; renal transplant", "value": 0.5, "unit": "%"},
      {"measurement": "neoplasia (other than lymphoma)", "setting": "[1]; renal transplant", "value": 3, "unit": "%"},
      {"measurement": "Infections And Infestations, %", "setting": "[2]", "value": "(13.3) %"},
      {"measurement": "Infections And Infestations, Incidence Rate", "setting": "[2]", "value": "1.8 Events/PY of MTX"},
      {"measurement": "Infections And Infestations, Total Events", "setting": "[2]", "value": 2},
      {"measurement": "Blood And Lymphatic System Disorders, %", "setting": "[2]; ITT N = 15", "value": "(6.7) %"},
      {"measurement": "Chronic Sinusitis, %", "setting": "[2]; ITT N = 15", "value": "(6.7) %"},
      {"measurement": "Cough, %", "setting": "[2]; ITT N = 15", "value": "(6.7) %"},
      {"measurement": "Dental Caries, %", "setting": "[2]; ITT N = 15", "value": "(6.7) %"},
      {"measurement": "Diarrhoea, %", "setting": "[2]; ITT N = 15", "value": "(6.7) %"},
      {"measurement": "Dry Eye, %", "setting": "[2]; ITT N = 15", "value": "(6.7) %"},
      {"measurement": "Eye Disorders, %", "setting": "[2]; ITT N = 15", "value": "(6.7) %"},
      {"measurement": "Headache, %", "setting": "[2]; ITT N = 15", "value": "(6.7) %"},
      {"measurement": "Leukopenia, %", "setting": "[2]; ITT N = 15", "value": "(6.7) %"},
      {"measurement": "Nasopharyngitis, %", "setting": "[2]; ITT N = 15", "value": "(6.7) %"},
      {"measurement": "Nervous System Disorders, %", "setting": "[2]; ITT N = 15", "value": "(6.7) %"},
      {"measurement": "Neutropenia, %", "setting": "[2]; ITT N = 15", "value": "(6.7) %"},
      {"measurement": "Pruritus, %", "setting": "[2]; ITT N = 15", "value": "(6.7) %"},
      {"measurement": "Respiratory, Thoracic And Mediastinal Disorders, %", "setting": "[2]; ITT N = 15", "value": "(6.7) %"},
      {"measurement": "Skin And Subcutaneous Tissue Disorders, %", "setting": "[2]; ITT N = 15", "value": "(6.7) %"},
      {"measurement": "Abdominal Discomfort, Incidence Rate", "setting": "[2]; ITT N = 15, PY of MTX = 1.1", "value": "1.8 Events/PY of MTX"},
      {"measurement": "Blood And Lymphatic System Disorders, Incidence Rate", "setting": "[2]; ITT N = 15, PY of MTX = 1.1", "value": "1.8 Events/PY of MTX"},
      {"measurement": "Chronic Sinusitis, Incidence Rate", "setting": "[2]; ITT N = 15, PY of MTX = 1.1", "value": "0.9 Events/PY of MTX"},
      {"measurement": "Cough, Incidence Rate", "setting": "[2]; ITT N = 15, PY of MTX = 1.1", "value": "0.9 Events/PY of MTX"},
      {"measurement": "Dental Caries, Incidence Rate", "setting": "[2]; ITT N = 15, PY of MTX = 1.1", "value": "0.9 Events/PY of MTX"},
      {"measurement": "Diarrhoea, Incidence Rate", "setting": "[2]; ITT N = 15, PY of MTX = 1.1", "value": "0.9 Events/PY of MTX"},
      {"measurement": "Dry Eye, Incidence Rate", "setting": "[2]; ITT N = 15, PY of MTX = 1.1", "value": "0.9 Events/PY of MTX"},
      {"measurement": "Eye Disorders, Incidence Rate", "setting": "[2]; ITT N = 15, PY of MTX = 1.1", "value": "0.9 Events/PY of MTX"},
      {"measurement": "Gastrointestinal Disorders, Incidence Rate", "setting": "[2]; ITT N = 15, PY of MTX = 1.1", "value": "5.5 Events/PY of MTX"},
      {"measurement": "Gout, Incidence Rate", "setting": "[2]; ITT N = 15, PY of MTX = 1.1", "value": "5.5 Events/PY of MTX"},
      {"measurement": "Headache, Incidence Rate", "setting": "[2]; ITT N = 15, PY of MTX = 1.1", "value": "0.9 Events/PY of MTX"},
      {"measurement": "Leukopenia, Incidence Rate", "setting": "[2]; ITT N = 15, PY of MTX = 1.1", "value": "0.9 Events/PY of MTX"},
      {"measurement": "Metabolism And Nutrition Disorders, Incidence Rate", "setting": "[2]; ITT N = 15, PY of MTX = 1.1", "value": "5.5 Events/PY of MTX"},
      {"measurement": "Nasopharyngitis, Incidence Rate", "setting": "[2]; ITT N = 15, PY of MTX = 1.1", "value": "0.9 Events/PY of MTX"},
      {"measurement": "Nausea, Incidence Rate", "setting": "[2]; ITT N = 15, PY of MTX = 1.1", "value": "1.8 Events/PY of MTX"},
      {"measurement": "Nervous System Disorders, Incidence Rate", "setting": "[2]; ITT N = 15, PY of MTX = 1.1", "value": "0.9 Events/PY of MTX"},
      {"measurement": "Neutropenia, Incidence Rate", "setting": "[2]; ITT N = 15, PY of MTX = 1.1", "value": "0.9 Events/PY of MTX"},
      {"measurement": "Pruritus, Incidence Rate", "setting": "[2]; ITT N = 15, PY of MTX = 1.1", "value": "0.9 Events/PY of MTX"},
      {"measurement": "Respiratory, Thoracic And Mediastinal Disorders, Incidence Rate", "setting": "[2]; ITT N = 15, PY of MTX = 1.1", "value": "0.9 Events/PY of MTX"},
      {"measurement": "Skin And Subcutaneous Tissue Disorders, Incidence Rate", "setting": "[2]; ITT N = 15, PY of MTX = 1.1", "value": "0.9 Events/PY of MTX"},
      {"measurement": "Blood And Lymphatic System Disorders, %", "setting": "[2]; mITT N = 14", "value": "(7.1) %"},
      {"measurement": "Chronic Sinusitis, %", "setting": "[2]; mITT N = 14", "value": "(7.1) %"},
      {"measurement": "Cough, %", "setting": "[2]; mITT N = 14", "value": "(7.1) %"},
      {"measurement": "Dental Caries, %", "setting": "[2]; mITT N = 14", "value": "(7.1) %"},
      {"measurement": "Diarrhoea, %", "setting": "[2]; mITT N = 14", "value": "(7.1) %"},
      {"measurement": "Dry Eye, %", "setting": "[2]; mITT N = 14", "value": "(7.1) %"},
      {"measurement": "Eye Disorders, %", "setting": "[2]; mITT N = 14", "value": "(7.1) %"},
      {"measurement": "Headache, %", "setting": "[2]; mITT N = 14", "value": "(7.1) %"},
      {"measurement": "Infections And Infestations, %", "setting": "[2]; mITT N = 14", "value": "(14.3) %"},
      {"measurement": "Infections And Infestations, Total Events", "setting": "[2]; mITT N = 14", "value": 2},
      {"measurement": "Leukopenia, %", "setting": "[2]; mITT N = 14", "value": "(7.1) %"},
      {"measurement": "Nasopharyngitis, %", "setting": "[2]; mITT N = 14", "value": "(7.1) %"},
      {"measurement": "Nervous System Disorders, %", "setting": "[2]; mITT N = 14", "value": "(7.1) %"},
      {"measurement": "Neutropenia, %", "setting": "[2]; mITT N = 14", "value": "(7.1) %"},
      {"measurement": "Pruritus, %", "setting": "[2]; mITT N = 14", "value": "(7.1) %"},
      {"measurement": "Respiratory, Thoracic And Mediastinal Disorders, %", "setting": "[2]; mITT N = 14", "value": "(7.1) %"},
      {"measurement": "Skin And Subcutaneous Tissue Disorders, %", "setting": "[2]; mITT N = 14", "value": "(7.1) %"},
      {"measurement": "Abdominal Discomfort, Incidence Rate", "setting": "[2]; mITT N = 14, PY of MTX = 1.0", "value": "2.0 Events/PY of MTX"}
    ]}
  ]
}
